Here are results for one compound from US7442706B2, “Methods for treating sarcopenia with a growth hormone secretagogue” (priority 2006, dated 2008).

The subject of test [1] is GH. To be noted: healthy older men and women; 25 mg p.o. daily; cited from earlier work.
Test [2] concerns GH. The test can be described thus: 24-h mean GH levels, blood sampled every 10 minutes for 24 hours, chemiluminescence assay, 2-year placebo-controlled trial. Type of test: in vivo, human. The note with it: for 24-h mean GH, mean (range) fold-change / 24-h mean GH level in a person: 25 mg p.o. daily; for 24-h mean GH, mean (range) fold-change: N=43, ratio of geometric means; for 24-h mean GH level in a person: baseline 0.37. The procedure: Sixty-five healthy men and women (±HRT) ages 60-81 years were enrolled in a 2-year study of MK-677 (25 mg p.o. daily) or placebo. In addition to GH and IGF-I, the primary endpoints were fat-free mass (FFM), by 4-compartment model and DXA, and abdominal visceral fat (AVF) by CT. Secondary endpoints included isokinetic strength, function and quality of life (QoL); all endpoints were assessed at baseline and every 6 months, with frequent monitoring for adverse effects.
This NIH-funded study was approved by the General Clinical Research Center (GCRC) and the University of Virginia Institutional Review Boards. All subjects gave written informed consent. A two-year, double-blind, placebo-controlled modified crossover trial of once-daily administration of an oral GH secretogogue (MK-677, 25 mg) to healthy older adults was performed.
During the first year, subjects were randomized to MK-677 or placebo treatment. In each of 3 groups (23 men, 25 women on hormone replacement therapy (HRT) and 17 women not on HRT), ⅔ received MK-677 and ⅓ received placebo. At the end of year 1, the subjects who received placebo were switched to MK-677 treatment (N= 2/0 in year 2); subjects who received MK-677 for the first year were randomized to continue MK-677 (N=20) or to placebo (N=19).
Growth hormone (GH) concentrations and pulsatile characteristics. Blood samples were obtained every 10 minutes for 24 hours for measurement of GH in a sensitive chemiluminescence assay (2); endogenous GH secretory dynamics were assessed using an automated multiple-parameter deconvolution method as previously reported (1;3).
The primary outcome data for the 6- and 12-month changes in FFM and AVF as well as for IGF-I and GH were analyzed via repeated measures ANCOVA. The FFM and AVF data were analyzed on the same scale as they were measured, while the IGF-I and GH data were transformed to the natural logarithmic scale before conducting the statistical analyses so that the variance and normality assumptions of the linear model were not violated.
Since the FFM and AVF data were analyzed on the same scale as initially measured, the 6- and 12-month changes are reported as a difference between arithmetic means; changes in IGF-I and GH data analyzed on the natural algorithmic scale are reported as a ratio of geometric means.

Test [3] in a line: T-score for total appendicular skeletal mass TASM/ht^2 (sarcopenia index). Type of test: in vivo, human. As to the method:
The primary outcome measures were the effects of increased GH and IGF-I on AVF and FFM; additional outcomes included body weight, fat mass, body water compartments, 24-h GH secretory dynamics, insulin sensitivity, quality of life and physical performance. Because gender and height influence total muscle mass, an index of relative muscle mass was calculated: total ASM from DXA was divided by height squared in meters (TASM (kg)/ht^2). To put changes in FFM in a clinical perspective, a t-score was computed for each individual, relating the TASM/ht^2 to those of gender-specific young adults (12). In accordance with Baumgartner et al., sarcopenia was defined as ≦2 SD below young, gender-specific reference populations (13; 14).

Structures are written as SMILES.

As to `CC(C)(N)C(=O)N[C@H](COCc1ccccc1)C(=O)N1CCC2(CC1)CN(S(C)(=O)=O)c1ccccc12.CS(=O)(=O)O` [MK-677, N-[1(R)-[(1,2-dihydro-1-methanesulfonylspiro[3H-indole-3,4′-piperidin]-1′-yl)carbonyl]-2-(phenylmethyloxy)ethyl]-2-amino-2-methylpropanamide methanesulfonate], in the test on GH [1], the “IGF-I and pulsatile GH release, previously reported” value is “enhanced IGF-I and pulsatile GH release into the young adult normal range”. Further, in the test on GH [2] (6 months), the “24-h mean GH, mean (range) fold-change” value is listed as 1.9 (1.6-2.2) fold and the “24-h mean GH level in a person” value stood at 1.0 µg/L. Besides, in the test on GH [2] (12 months), the “24-h mean GH, mean (range) fold-change” value is on record as 1.8 (1.6-2.0) fold and the “24-h mean GH level in a person” value came to 0.86 µg/L. In addition, in the test on GH [2] (secretion per peak vs. peak frequency), the “Deconvolution analysis of the increase in GH” value is “increased secretion per peak”. Also, the “T-scores for TASM/ht^2 vs. placebo” value in test [3] (12 months) is recorded as “significantly increased”. In addition, in test [3] (end of year 1, 25 mg p.o. daily), the “subjects with a decrease in t-score (TASM/ht^2)” value is 7 of 43.
